Results: ChEMBL document CHEMBL6109109, “Fatty acid binding protein 5 inhibitors as novel anticancer agents against metastatic castration-resistant prostate cancer” (Bioorg Med Chem, 2025)

Assays:
PC-3 [1] = experiment: Cytotoxicity against human PC-3 cells assessed as reduction in cell viability measured after 72 hrs by MTT assay; type: functional, cell-based; conditions: PC-3, 72 h
[2] = Cytotoxicity against mouse RCap cells assessed as reduction in cell viability measured after 72 hrs by MTT assay; type: functional, cell-based
[3] = Cytotoxicity against human WI-38 cells assessed as reduction in cell viability measured after 72 hrs by MTT assay; type: toxicity, cell-based
PC-3 [4] = experiment: Induction of apoptosis in human PC-3 cells assessed as viable cells at 15 uM measured after 72 hrs by Annexin V-FITC/propidium iodide staining based FACS analysis (reference value: 97.62%); type: functional; conditions: read-out: Activity
PC-3 [5] = experiment: Induction of apoptosis in human PC-3 cells assessed as early apoptotic cells at 15 uM measured after 72 hrs by Annexin V-FITC/propidium iodide staining based FACS analysis (reference value: 0.54%); type: functional
PC-3 [6] = experiment: Induction of apoptosis in human PC-3 cells assessed as late apoptotic cells at 15 uM measured after 72 hrs by Annexin V-FITC/propidium iodide staining based FACS analysis (reference value: 1.73%); type: functional
PC-3 [7] = experiment: Induction of apoptosis in human PC-3 cells assessed as necrotic cells at 15 uM measured after 72 hrs by Annexin V-FITC/propidium iodide staining based FACS analysis (reference value: 0.11%); type: functional
[8] = Binding affinity to FABP5 (unknown origin); design: species or system Homo sapiens
PC-3 [9] = experiment: Cytotoxicity against human PC-3 cells assessed as cell growth inhibition at 10 uM measured after 72 hrs by MTT assay relative to control; type: functional; conditions: read-out: GI
PC-3 [10] = experiment: Cytotoxicity against human PC-3 cells assessed as cell growth inhibition at 0.00001 uM measured after 72 hrs by MTT assay relative to control; type: functional; conditions: dose 1e-05 µM, read-out: GI
PC-3 [11] = experiment: Cytotoxicity against human PC-3 cells assessed as cell growth inhibition at 0.0001 uM measured after 72 hrs by MTT assay relative to control; type: functional; conditions: read-out: GI
PC-3 [12] = experiment: Cytotoxicity against human PC-3 cells assessed as cell growth inhibition at 0.001 uM measured after 72 hrs by MTT assay relative to control; type: functional; conditions: read-out: GI
PC-3 [13] = experiment: Cytotoxicity against human PC-3 cells assessed as cell growth inhibition at 0.01 uM measured after 72 hrs by MTT assay relative to control; type: functional; conditions: read-out: GI
PC-3 [14] = experiment: Cytotoxicity against human PC-3 cells assessed as cell growth inhibition at 0.1 uM measured after 72 hrs by MTT assay relative to control; type: functional; conditions: read-out: GI
PC-3 [15] = experiment: Cytotoxicity against human PC-3 cells assessed as cell growth inhibition at 1 uM measured after 72 hrs by MTT assay relative to control; type: functional; conditions: read-out: GI
[16] = Cytotoxicity against mouse RCaP cells assessed as cell growth inhibition at 10 uM measured after 72 hrs by MTT assay relative to control; type: functional; conditions: read-out: GI
[17] = Cytotoxicity against mouse RCaP cells assessed as cell growth inhibition at 0.00001 uM measured after 72 hrs by MTT assay relative to control; type: functional; conditions: dose 1e-05 µM, read-out: GI
[18] = Cytotoxicity against mouse RCaP cells assessed as cell growth inhibition at 0.0001 uM measured after 72 hrs by MTT assay relative to control; type: functional; conditions: read-out: GI
[19] = Cytotoxicity against mouse RCaP cells assessed as cell growth inhibition at 0.001 uM measured after 72 hrs by MTT assay relative to control; type: functional; conditions: read-out: GI
[20] = Cytotoxicity against mouse RCaP cells assessed as cell growth inhibition at 0.01 uM measured after 72 hrs by MTT assay relative to control; type: functional; conditions: read-out: GI
[21] = Cytotoxicity against mouse RCaP cells assessed as cell growth inhibition at 0.1 uM measured after 72 hrs by MTT assay relative to control; type: functional; conditions: read-out: GI
[22] = Cytotoxicity against mouse RCaP cells assessed as cell growth inhibition at 1 uM measured after 72 hrs by MTT assay relative to control; type: functional; conditions: read-out: GI

## O=C(O)[C@H]1[C@@H](c2ccccc2)[C@H](C(=O)Oc2cccc3ccccc23)[C@@H]1c1ccccc1
PC-3 [1]
  IC50: 15.9 µM
[2]
  IC50: 33.4 µM
[3]
  IC50 at 72 h: 83.3 µM
PC-3 [4]
  viability at 15 µM: 95.4%
PC-3 [5]
  Activity: 1.22%
PC-3 [6]
  Activity: 3.13%
PC-3 [7]
  Activity: 0.21%

## O=C(O)[C@@H]1[C@@H](c2ccccc2)[C@H](C(=O)OCc2cccc3ccccc23)[C@H]1c1ccccc1
PC-3 [1]
  IC50: 13.1 µM
[2]
  IC50: 23.9 µM
[3]
  IC50 at 72 h: 27.1 µM
[8]
  Ki: 5.08 µM

## O=C1CCc2cc(-c3cccc(OC(=O)[C@H]4[C@@H](c5ccccc5)[C@@H](C(=O)O)[C@@H]4c4ccccc4)c3)ccc2N1
PC-3 [1]
  IC50: 13.1 µM
[2]
  IC50: 15.6 µM
[3]
  IC50 at 72 h: 77 µM
[8]
  Ki: 7.59 µM

## O=C(O)[C@H]1[C@H](c2ccccc2)[C@H](C(=O)Oc2cccc(-c3ccc4c(c3)OCCO4)c2)[C@H]1c1ccccc1
PC-3 [1]
  IC50: 13.1 µM
[2]
  IC50: 14.5 µM
[3]
  IC50 at 72 h: 66.5 µM
[8]
  Ki: 0.66 µM

## COc1ccccc1[C@H]1[C@H](C(=O)O)[C@H](c2ccccc2OC)[C@H]1C(=O)Oc1cc(-c2ccc3c(c2)OCO3)ccc1CC#N
PC-3 [1]
  IC50: 12.5 µM
[2]
  IC50: 20.7 µM
[3]
  IC50 at 72 h: 29.8 µM
[8]
  Ki: 0.58 µM

## COc1ccccc1[C@H]1[C@H](C(=O)O)[C@H](c2ccccc2OC)[C@@H]1C(=O)Oc1cccc(-c2cccc3c2OCO3)c1
PC-3 [1]
  IC50: 15.7 µM
[2]
  IC50: 29 µM
[3]
  IC50 at 72 h: 49 µM
[8]
  Ki: 1.26 µM

## COc1ccccc1[C@H]1[C@H](C(=O)O)[C@H](c2ccccc2OC)[C@@H]1C(=O)Oc1cccc(-c2ccc(F)cc2)c1
PC-3 [1]
  IC50: 14.6 µM
[2]
  IC50: 19 µM
[3]
  IC50 at 72 h: 57.5 µM
[8]
  Ki: 1.77 µM

## COc1ccccc1[C@H]1[C@H](C(=O)O)[C@H](c2ccccc2OC)[C@H]1C(=O)Oc1cccc(-c2ccc3c(c2)OCCO3)c1
PC-3 [1]
  IC50: 13 µM
[2]
  IC50: 12.5 µM
[3]
  IC50 at 72 h: 54.7 µM
[8]
  Ki: 1.56 µM

## CC[C@@]1(O)C(=O)OCc2c1cc1n(c2=O)Cc2cc3c(CN(C)C)c(O)ccc3nc2-1 [TOPOTECAN]
PC-3 [9]
  inhibition of growth at 10 µM: 69.2%
PC-3 [10]
  inhibition of growth at 10 pM: -4.4%
PC-3 [11]
  inhibition of growth at 0.0001 µM: -2.77%
PC-3 [12]
  inhibition of growth at 0.001 µM: 1.13%
PC-3 [13]
  inhibition of growth at 0.01 µM: 20.1%
PC-3 [14]
  inhibition of growth at 0.1 µM: 55.9%
PC-3 [15]
  inhibition of growth at 1 µM: 67.1%
[16]
  inhibition of growth at 10 µM: 89.6%
[17]
  inhibition of growth at 10 pM: -1.57%
[18]
  inhibition of growth at 0.0001 µM: -3.2%
[19]
  inhibition of growth at 0.001 µM: 0.1%
[20]
  inhibition of growth at 0.01 µM: 9.17%
[21]
  inhibition of growth at 0.1 µM: 66%
[22]
  inhibition of growth at 1 µM: 93.6%
